Measured values from PubChem BioAssay (NCI).
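Method: 48-hour compound exposure of cells in 96-well plates, five concentrations, linear interpolation of endpoints. GI50 is the concentration that inhibits growth by half. Definition used: TGI = concentration required for complete inhibition of growth.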

What was measured:
Assay in all cases: growth of human tumour cells (NCI), 48 h
786-0 renal = system: 786-0 renal
EKVX NSCLC = system: EKVX NSCLC
HCT-116 colon = system: HCT-116 colon
HCT-15 colon = system: HCT-15 colon
HOP-92 NSCLC = system: HOP-92 NSCLC
LOX IMVI melanoma = system: LOX IMVI melanoma
NCI-H460 lung = system: NCI-H460 lung
SK-MEL-28 melanoma = system: SK-MEL-28 melanoma
SK-OV-3 ovarian = system: SK-OV-3 ovarian
SW-620 colon = system: SW-620 colon

Structure (SMILES) | GI50 (786-0 renal) [µM] | TGI (786-0 renal) [µM] | GI50 (EKVX NSCLC) [µM] | TGI (EKVX NSCLC) [µM] | GI50 (HCT-116 colon) [µM] | TGI (HCT-116 colon) [µM] | GI50 (HCT-15 colon) [µM] | TGI (HCT-15 colon) [µM] | GI50 (HOP-92 NSCLC) [µM] | TGI (HOP-92 NSCLC) [µM] | GI50 (LOX IMVI melanoma) [µM] | TGI (LOX IMVI melanoma) [µM] | GI50 (NCI-H460 lung) [µM] | TGI (NCI-H460 lung) [µM] | GI50 (SK-MEL-28 melanoma) [µM] | TGI (SK-MEL-28 melanoma) [µM] | GI50 (SK-OV-3 ovarian) [µM] | TGI (SK-OV-3 ovarian) [µM] | GI50 (SW-620 colon) [µM] | TGI (SW-620 colon) [µM]
O=P([O-])(O)OP(=O)([O-])O.[NH-][C@H]1CCCC[C@@H]1[NH-].[OH-].[OH-].[Pt+4] | 29.5 | 76.2 | 25.3 | 68.3 | 37.1 | > 100 | 39.9 | > 100 | 22 | 60.1 | 33.2 | > 100 | 34.5 | > 100 | 31.5 | > 100 | 19.9 | 38.6 | 55.8 | > 100
Cc1ccc(C)c(NC(=O)C(=O)CC(=O)C2CCOC2=O)c1 (stereo not given) |  | > 100 |  | > 100 |  | > 100 |  | > 100 |  | > 100 |  | > 100 |  | > 100 |  | > 100 |  | > 100 |  | > 100
O=C(NCCCCCCCCNC(=O)c1cnc2ccccc2n1)c1cnc2ccccc2n1 |  | > 100 |  | > 100 |  | > 100 |  | > 100 |  | > 100 |  | > 100 |  | > 100 |  |  |  | > 100 |  | > 100
COc1ccc(/C(=N/NC(N)=O)C2(O)C(=O)Nc3ccc([N+](=O)[O-])cc32)cc1 (stereo not given) |  | 30.2 |  | > 100 |  | 36.1 |  | 46.1 |  | 45.4 |  |  |  | 39.4 |  | 36.9 |  | > 100 |  | 50.8
COc1cc2c(/C=N\N=C(N)N)c(Cl)[nH]c2cc1C | 14.4 | 28.3 | 16.9 | 34.5 | 10.2 | 21.9 | 18 | 34.1 |  |  | 11.4 | 25.3 | 15 | > 100 |  |  | 9.03 | 24.1 | 14.7 | 30.7
C1=C(c2ccccc2)CN(c2ccccc2)OC1 |  | > 100 |  | > 100 |  |  |  | > 100 |  |  |  | > 100 |  | > 100 |  | > 100 |  | > 100 |  | > 100
C1OCC2S[C@@H]3COCO[C@@H]3C2O1 (stereo not given in full) |  | > 100 |  | > 100 |  | > 100 |  | > 100 |  |  |  | > 100 |  | > 100 |  | > 100 |  | > 100 |  | 
O=C(O)c1ccccc1Cc1ccco1 |  | > 100 |  | > 100 |  | > 100 |  | > 100 |  | > 100 |  |  |  | > 100 |  |  |  | > 100 |  | > 100
NNC(=S)N/N=C(\CCCC(=O)NCCc1ccccc1)CC(=O)c1ccccc1 |  | > 100 |  | > 100 |  | > 100 |  | > 100 |  | > 100 |  |  |  | > 100 |  | > 100 |  |  |  | > 100
CC[P+](C)(Cc1ccccc1)c1ccccc1 (stereo not given) |  | > 100 |  | > 100 |  | > 100 |  | > 100 |  |  |  | > 100 |  | > 100 |  | > 100 |  | > 100 |  | > 100
